# Source: BindingDB's records for PubMed 35144038 (Shaoxing University, 2022)
# Molecular target: High affinity cGMP-specific 3',5'-cyclic phosphodiesterase 9A (Homo sapiens, UniProt O76083)
# Test: Inhibition of recombinant human PDE9A1 by radiometric assay
# Chain of High affinity cGMP-specific 3',5'-cyclic phosphodiesterase 9A (O76083 whole entry): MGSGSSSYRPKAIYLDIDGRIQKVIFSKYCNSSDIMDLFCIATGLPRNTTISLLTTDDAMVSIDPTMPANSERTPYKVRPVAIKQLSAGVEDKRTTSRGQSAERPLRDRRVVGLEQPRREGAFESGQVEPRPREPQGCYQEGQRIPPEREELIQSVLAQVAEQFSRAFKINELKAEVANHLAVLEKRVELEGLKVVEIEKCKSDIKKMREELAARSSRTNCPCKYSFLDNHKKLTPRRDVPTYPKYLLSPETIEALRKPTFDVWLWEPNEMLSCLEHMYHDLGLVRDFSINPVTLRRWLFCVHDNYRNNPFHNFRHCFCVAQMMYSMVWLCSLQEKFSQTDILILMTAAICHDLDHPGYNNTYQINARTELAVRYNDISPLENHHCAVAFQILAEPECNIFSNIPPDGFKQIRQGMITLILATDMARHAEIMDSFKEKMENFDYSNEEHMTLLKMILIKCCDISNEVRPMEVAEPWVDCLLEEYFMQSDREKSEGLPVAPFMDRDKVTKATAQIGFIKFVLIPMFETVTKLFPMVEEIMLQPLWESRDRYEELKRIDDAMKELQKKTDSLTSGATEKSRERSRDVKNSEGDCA
compound,measurement,value
"C[C@@H]1CN(Cc2ncccn2)C[C@H]1c1cn2c(C3CCOCC3)ncc2c(=O)[nH]1 [US10513524, Compound (P3]",IC50,8.2 nM
